From ChEMBL document CHEMBL1201862, “PubChem BioAssay data set” (2004)
Activity calls are given as the source filed them.

Experiments:
[1] = cytotoxicity toward NIH3T3 fibroblasts, dose response, counter-screen, cell-based, ATP luminescence, mouse fibroblasts (AID 2010); format: functional;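 further: cells exposed to compound for about 90 hours before reading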
Streptococcus = assay: Group A Streptococcus viability loss, dose response, counter-screen for streptokinase expression inhibitor project, luminescence, BacTiterGlo (AID 1915); format: functional, organism-based;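 further: potency for reduction of bacterial viability or growth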
[2] = inhibitors of intracellular T. cruzi replication, confirmation, NIH3T3 host cells, beta-gal luminescence (AID 2044); format: functional, cell-based;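 further: intracellular parasites grown in NIH/3T3 mouse fibroblasts as host cells; luminescent beta-galactosidase reporter signal from transgenic T. cruzi replicating inside host cells; inhibitors lower the luminescence signal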
Vero = assay: cells; format: functional; conditions: Chlorocebus sabaeus
[3] = tested on: Streptococcus sp. 'group A'; assay: growth inhibition of control SK(-) GAS strain, dose response, counter-screen for streptokinase expression inhibitor project, luminescence, kanamycin, BacTiterGlo, confirmation (AID 1900); format: functional, organism-based
Streptokinase A = target: T1, Streptokinase A (Streptococcus pyogenes serotype M1, UniProt P10520); assay: S. pyogenes streptokinase expression inhibitors, potency, dose response, plasminogen activation absorbance, OD405 (AID 1914); format: functional, Streptococcus pyogenes M1 GAS;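 further: secreted streptokinase activity via plasminogen activation per viability signal from cell pellet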
T1 sequence (P10520 whole entry): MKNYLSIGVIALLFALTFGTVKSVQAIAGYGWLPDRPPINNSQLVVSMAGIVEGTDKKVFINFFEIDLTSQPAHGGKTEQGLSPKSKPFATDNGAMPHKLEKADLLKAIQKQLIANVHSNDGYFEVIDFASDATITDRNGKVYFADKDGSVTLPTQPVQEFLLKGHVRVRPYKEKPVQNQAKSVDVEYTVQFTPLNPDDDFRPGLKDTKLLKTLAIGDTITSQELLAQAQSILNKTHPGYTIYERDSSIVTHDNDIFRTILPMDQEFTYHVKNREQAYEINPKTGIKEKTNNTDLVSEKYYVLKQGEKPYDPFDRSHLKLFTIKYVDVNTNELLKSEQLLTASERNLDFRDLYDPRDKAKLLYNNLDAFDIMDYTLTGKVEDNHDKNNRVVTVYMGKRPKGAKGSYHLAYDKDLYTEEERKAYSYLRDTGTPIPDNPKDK

Beta-galactosidase = Beta-galactosidase (Escherichia coli, UniProt Q8VNN2); assay: PubChem AID 485352; format: functional
[4] = target: T2, Replicative DNA helicase DnaB (Mycobacterium tuberculosis, UniProt P9WMR3); assay: DnaB intein splicing inhibitors, dose response, biochemical, cell-free fluorescence (AID 449749); format: functional
T2 sequence (P9WMR3 whole entry): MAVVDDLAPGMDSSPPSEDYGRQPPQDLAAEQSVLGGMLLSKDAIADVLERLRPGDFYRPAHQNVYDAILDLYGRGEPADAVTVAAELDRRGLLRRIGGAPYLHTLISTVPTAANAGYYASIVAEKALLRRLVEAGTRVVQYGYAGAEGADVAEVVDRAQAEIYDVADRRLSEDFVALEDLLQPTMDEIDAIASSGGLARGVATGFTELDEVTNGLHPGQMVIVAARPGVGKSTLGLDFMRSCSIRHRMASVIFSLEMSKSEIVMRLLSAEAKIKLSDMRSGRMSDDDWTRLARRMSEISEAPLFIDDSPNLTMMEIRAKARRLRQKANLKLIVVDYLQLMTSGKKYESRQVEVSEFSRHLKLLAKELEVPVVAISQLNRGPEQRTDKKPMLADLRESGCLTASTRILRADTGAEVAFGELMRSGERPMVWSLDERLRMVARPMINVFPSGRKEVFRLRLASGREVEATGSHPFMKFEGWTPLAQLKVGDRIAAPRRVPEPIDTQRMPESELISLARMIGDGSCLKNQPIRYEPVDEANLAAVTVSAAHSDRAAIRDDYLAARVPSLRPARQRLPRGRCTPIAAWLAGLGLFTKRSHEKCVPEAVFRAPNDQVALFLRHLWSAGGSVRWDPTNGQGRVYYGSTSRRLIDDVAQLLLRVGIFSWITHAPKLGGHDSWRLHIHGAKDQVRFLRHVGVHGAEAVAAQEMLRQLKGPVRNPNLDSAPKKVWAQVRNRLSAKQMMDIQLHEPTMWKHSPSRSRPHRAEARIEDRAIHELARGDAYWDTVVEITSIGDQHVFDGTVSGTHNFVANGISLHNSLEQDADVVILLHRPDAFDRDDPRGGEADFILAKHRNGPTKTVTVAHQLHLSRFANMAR

Protein RecA = target: T3, Protein RecA (Mycobacterium tuberculosis, UniProt P9WHJ3); assay: Fluorescence Cell-Free Homogeneous Dose Retest to Identify Inhibitors of RecA-Intein Splicing Activity. [Related pubchem assays (depositor defined):AID2097, AID2223, AID489010, AID492950]; format: functional
T3 sequence (P9WHJ3 whole entry): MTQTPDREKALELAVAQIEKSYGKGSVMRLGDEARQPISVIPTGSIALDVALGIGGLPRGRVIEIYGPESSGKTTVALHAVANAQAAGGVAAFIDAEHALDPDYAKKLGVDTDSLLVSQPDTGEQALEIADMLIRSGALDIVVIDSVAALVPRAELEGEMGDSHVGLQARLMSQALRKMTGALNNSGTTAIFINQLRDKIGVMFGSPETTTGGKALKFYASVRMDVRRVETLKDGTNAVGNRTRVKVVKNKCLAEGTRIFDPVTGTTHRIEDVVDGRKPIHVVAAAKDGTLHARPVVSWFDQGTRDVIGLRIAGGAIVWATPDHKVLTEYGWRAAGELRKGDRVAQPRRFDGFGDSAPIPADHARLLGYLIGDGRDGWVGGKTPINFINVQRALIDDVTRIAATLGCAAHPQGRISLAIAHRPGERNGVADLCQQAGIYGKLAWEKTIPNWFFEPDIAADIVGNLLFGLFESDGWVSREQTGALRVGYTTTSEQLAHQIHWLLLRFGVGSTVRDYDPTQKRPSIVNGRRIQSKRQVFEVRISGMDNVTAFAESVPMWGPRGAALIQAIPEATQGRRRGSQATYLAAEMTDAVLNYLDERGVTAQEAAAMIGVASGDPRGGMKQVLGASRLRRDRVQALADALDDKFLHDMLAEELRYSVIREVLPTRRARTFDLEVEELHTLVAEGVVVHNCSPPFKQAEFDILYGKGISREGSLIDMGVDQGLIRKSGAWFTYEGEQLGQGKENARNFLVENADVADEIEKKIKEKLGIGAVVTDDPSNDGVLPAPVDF

[5] = target: T4, Type-1 angiotensin II receptor (Homo sapiens, UniProt P30556); assay: AT1 receptor antagonists, dose response, selectivity assay for APJ receptor antagonist project, cell-based, uHTS hits (AID 463214); format: functional;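 further: antagonist potency against angiotensin II stimulated AT1 response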
T4 sequence (P30556 whole entry): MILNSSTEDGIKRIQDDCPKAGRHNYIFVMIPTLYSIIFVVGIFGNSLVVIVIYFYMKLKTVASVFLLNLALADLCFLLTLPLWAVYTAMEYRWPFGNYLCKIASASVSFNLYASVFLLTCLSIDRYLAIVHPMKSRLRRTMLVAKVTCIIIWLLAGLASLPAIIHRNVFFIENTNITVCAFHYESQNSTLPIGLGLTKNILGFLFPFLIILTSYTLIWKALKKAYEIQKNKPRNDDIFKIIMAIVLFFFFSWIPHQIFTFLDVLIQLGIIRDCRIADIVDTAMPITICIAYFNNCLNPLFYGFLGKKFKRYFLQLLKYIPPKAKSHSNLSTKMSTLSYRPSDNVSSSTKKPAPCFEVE

[6] = target: T5, Short transient receptor potential channel 4 (Mus musculus, UniProt Q9QUQ5); assay: mouse TRPC4 channel inhibitors, dose response, cell-based, HEK293 TRPC4/mu-opioid, Fluo-4 calcium (AID 434942); format: functional;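 further: potency of inhibitors blocking the TRPC4 calcium response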
T5 sequence (Q9QUQ5 whole entry): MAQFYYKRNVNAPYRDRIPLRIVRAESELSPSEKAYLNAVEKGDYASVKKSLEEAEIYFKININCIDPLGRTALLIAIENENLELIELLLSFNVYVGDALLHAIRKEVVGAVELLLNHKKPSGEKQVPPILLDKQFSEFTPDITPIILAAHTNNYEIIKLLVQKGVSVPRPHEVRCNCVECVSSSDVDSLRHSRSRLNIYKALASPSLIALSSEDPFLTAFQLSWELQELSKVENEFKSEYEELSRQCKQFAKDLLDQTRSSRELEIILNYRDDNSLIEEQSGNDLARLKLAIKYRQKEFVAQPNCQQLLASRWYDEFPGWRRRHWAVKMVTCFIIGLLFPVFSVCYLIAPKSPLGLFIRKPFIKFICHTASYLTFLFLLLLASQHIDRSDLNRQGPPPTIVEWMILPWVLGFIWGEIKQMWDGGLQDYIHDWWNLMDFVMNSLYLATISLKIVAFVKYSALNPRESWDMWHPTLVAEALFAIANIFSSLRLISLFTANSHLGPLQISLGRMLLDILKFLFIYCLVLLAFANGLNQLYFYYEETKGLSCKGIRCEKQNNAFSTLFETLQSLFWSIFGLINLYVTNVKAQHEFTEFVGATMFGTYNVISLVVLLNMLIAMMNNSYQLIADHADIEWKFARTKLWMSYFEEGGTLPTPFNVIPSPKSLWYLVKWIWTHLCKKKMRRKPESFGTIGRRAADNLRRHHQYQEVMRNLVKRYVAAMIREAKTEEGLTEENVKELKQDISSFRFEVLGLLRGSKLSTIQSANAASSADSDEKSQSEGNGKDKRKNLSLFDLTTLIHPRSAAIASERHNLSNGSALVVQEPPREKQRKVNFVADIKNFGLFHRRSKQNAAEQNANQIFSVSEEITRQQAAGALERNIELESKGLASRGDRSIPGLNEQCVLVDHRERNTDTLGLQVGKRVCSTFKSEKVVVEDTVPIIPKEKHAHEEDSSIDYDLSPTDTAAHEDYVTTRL

[7] = HEp-2 cell cytotoxicity, dose response, cytotoxicity control for RSV inhibitor project, HTS (AID 2410); format: functional; conditions: human respiratory syncytial virus
Nonstructural protein 1 = Nonstructural protein 1 (Influenza A virus, UniProt Q194T2); format: functional, Influenza A virus (A/California/07/2009(H1N1))
[8] = target: T6, Heat shock factor protein 1 (Mus musculus, UniProt P38532); assay: HSF1 potentiators in luciferase reporter cells, confirmation, cell-based, NIH3T3, luminescence, dose retest (AID 435004); format: functional;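 further: stress induced by proteasome inhibitor MG132 added 30 min after compound; luciferase reporter driven by HSF1 response element in NIH3T3 cells; actives raise luminescence as potentiators of the MG132 stress response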
T6 sequence (P38532 whole entry): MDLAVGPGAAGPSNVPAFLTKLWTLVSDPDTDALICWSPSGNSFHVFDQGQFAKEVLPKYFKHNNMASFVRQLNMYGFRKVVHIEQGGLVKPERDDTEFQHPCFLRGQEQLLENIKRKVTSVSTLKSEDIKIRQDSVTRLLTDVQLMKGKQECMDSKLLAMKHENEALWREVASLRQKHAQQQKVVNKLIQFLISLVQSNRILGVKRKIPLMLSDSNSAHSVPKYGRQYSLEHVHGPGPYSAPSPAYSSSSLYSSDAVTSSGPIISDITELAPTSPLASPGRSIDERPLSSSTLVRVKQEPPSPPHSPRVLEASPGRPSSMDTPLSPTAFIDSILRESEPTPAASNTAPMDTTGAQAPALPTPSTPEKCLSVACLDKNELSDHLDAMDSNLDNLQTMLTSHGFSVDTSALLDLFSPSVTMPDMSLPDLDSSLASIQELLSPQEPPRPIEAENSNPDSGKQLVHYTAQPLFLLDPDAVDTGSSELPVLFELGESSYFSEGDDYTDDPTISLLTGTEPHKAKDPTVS

[9] = microbe, parasite or virus in culture; format: functional; conditions: Mycobacterium tuberculosis
[10] = target: T7, High affinity choline transporter 1 (Homo sapiens, UniProt Q9GZV3); assay: CHT inhibitors, dose response, cell-based, 5-point CRC, membrane potential dye (AID 504840); format: functional
T7 sequence (Q9GZV3 whole entry): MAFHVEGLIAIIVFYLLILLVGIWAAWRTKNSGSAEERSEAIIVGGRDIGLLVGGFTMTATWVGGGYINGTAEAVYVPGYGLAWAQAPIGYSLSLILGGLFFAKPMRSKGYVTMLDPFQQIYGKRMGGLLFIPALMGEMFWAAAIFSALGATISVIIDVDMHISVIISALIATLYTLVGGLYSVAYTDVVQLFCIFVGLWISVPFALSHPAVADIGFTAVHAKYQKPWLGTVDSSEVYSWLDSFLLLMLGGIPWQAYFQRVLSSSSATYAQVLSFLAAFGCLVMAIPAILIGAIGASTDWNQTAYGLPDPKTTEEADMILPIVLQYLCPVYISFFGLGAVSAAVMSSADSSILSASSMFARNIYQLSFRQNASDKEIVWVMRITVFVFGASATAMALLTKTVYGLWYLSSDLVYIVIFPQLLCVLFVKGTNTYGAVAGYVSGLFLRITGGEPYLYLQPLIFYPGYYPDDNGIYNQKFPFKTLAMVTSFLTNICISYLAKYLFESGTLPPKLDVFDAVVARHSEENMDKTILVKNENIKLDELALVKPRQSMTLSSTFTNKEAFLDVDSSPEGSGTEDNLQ

Beta-galactosidase, sequence (Q8VNN2 whole entry): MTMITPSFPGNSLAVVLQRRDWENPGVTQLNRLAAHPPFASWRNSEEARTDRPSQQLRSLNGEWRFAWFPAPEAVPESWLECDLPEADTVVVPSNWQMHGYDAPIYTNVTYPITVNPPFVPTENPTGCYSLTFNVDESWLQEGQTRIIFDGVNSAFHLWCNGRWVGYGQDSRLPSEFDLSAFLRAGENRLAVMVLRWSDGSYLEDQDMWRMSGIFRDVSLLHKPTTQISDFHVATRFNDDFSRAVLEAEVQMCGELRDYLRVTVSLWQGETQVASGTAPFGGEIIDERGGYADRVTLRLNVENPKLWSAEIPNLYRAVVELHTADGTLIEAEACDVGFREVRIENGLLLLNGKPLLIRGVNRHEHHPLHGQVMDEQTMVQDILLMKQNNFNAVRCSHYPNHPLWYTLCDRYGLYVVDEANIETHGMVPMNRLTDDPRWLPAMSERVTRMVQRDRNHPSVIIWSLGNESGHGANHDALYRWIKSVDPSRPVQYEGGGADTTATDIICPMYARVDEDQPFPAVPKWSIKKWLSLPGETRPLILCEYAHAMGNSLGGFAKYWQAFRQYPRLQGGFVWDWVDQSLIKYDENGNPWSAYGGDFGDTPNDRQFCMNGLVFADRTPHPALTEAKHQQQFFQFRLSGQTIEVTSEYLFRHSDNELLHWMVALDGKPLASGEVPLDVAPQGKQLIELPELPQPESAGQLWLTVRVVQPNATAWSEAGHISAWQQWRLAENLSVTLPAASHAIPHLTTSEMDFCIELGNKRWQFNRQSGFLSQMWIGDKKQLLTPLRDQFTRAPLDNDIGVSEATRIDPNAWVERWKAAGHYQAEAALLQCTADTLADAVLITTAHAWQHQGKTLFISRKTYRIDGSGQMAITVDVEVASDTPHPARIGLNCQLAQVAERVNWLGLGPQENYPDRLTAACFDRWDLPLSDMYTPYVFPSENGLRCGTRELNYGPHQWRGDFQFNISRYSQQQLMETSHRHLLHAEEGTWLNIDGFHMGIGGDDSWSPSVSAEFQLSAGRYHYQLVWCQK
Nonstructural protein 1, sequence (Q194T2 whole entry): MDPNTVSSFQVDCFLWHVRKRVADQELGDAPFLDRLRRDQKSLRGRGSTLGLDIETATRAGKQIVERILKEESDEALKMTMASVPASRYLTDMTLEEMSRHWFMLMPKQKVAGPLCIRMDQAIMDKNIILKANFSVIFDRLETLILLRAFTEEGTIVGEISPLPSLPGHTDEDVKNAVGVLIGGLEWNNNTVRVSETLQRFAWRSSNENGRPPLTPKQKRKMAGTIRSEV

## COc1ccc(OC)c(/C=C/c2ccc3cccc(O)c3n2)c1
[1]
  EC50: > 30 µM (not active)
Streptococcus
  EC50: 10.7 µM (active)
[2]
  EC50: 2.07 µM (active)
Vero
  CC50: 9.5 µM (active)
[3]
  EC50: 0.323 µM (active)
Streptokinase A
  EC50: > 150 µM (not active)

## CC(C)OC(=O)CN1C(=O)C(=O)c2ccccc21
Beta-galactosidase
  EC50: > 40 µM (inactive)
[4]
  AC50: 14.3 µM (active)
Protein RecA
  EC50: 8.52 µM (active)
[5]
  IC50: 5.32 µM (active)

## CN(C)C(CNC(=O)c1oc2ccccc2c1CSc1nc[nH]n1)c1ccco1 (configuration not stated)
[6]
  EC50: 8.41 µM (active)

## C=CCSc1nc2c(c(=O)[nH]c(=O)n2C)n1C/C=C(/C)Cl
[6]
  EC50: 2.37 µM (active)
[7]
  CC50: 37.2 µM (active)

## CCc1cc2c(=O)[nH]c(-c3ccccn3)nc2s1
Beta-galactosidase
  EC50: > 40 µM (inactive)
Nonstructural protein 1
  IC50: 14.3 µM (active)
[8]
  EC50: 12.9 µM (active)
[5]
  IC50: 2.91 µM (active)

## CCN(CC)S(=O)(=O)c1ccc2oc(SCC(=O)Nc3cc(C)on3)nc2c1
[1]
  EC50: 5.9 µM (active)
Beta-galactosidase
  EC50: > 40 µM (inactive)
[2]
  EC50: > 30 µM (not active)
[9]
  CC50: 11.6 µM (active)
[5]
  IC50: > 40 µM (not active)

## Cn1cccc1/C=C(/C#N)C(N)=S
Beta-galactosidase
  EC50: > 40 µM (inactive)
[5]
  IC50: > 40 µM (not active)

## NS(=O)(=O)c1ccc(CCNCc2ccccc2OCc2ccc(Cl)cc2)cc1
[6]
  EC50: 6.68 µM (active)
[10]
  IC50: 11.2 µM (active)

## Cc1ccc(NC(=O)CNc2ccccc2CN(C)C2CCCCC2)cc1
[6]
  EC50: 2.99 µM (active)
